Laboratory results taken from US20070093520A1, “Method of treatment of diarrhea-predominant irritable bowel syndrome in a subject” (priority 2005, published 2007).

System: diarrhea-predominant IBS subjects
Format: in vivo, human
Details: Cilansetron 2 mg, N=1454
Procedure: The study was performed in approximately 150 study centers. Approximately 1600 eligible subjects were to be given cilansetron 2 mg TID. At Visit 1, pre-treatment assessments were conducted. […] Subjects were to return to the study site one month later for Visit 3 (Day 31) for their first interim assessment. […] All subjects who discontinued from the study were to have the same post-study assessments required at Visit 7 performed at their early termination visit. […]
Stool specimens were analyzed at every visit for occult blood. An independent GERB had been established to provide advice on GI AEs during the course of the study.
Adverse events were assessed at Baseline, at each clinic visit, and at the end of the study (Month 12 or the early termination visit). All AEs, which occurred during the study were followed up in accordance with good medical practice until resolved or judged no longer clinically significant, or if a condition was chronic, until fully characterized. Adverse events could occur in the specified follow-up period and, regardless of the interval since the last administration of the study medication, were treated in the same manner as an AE which occurred during the treatment with study medication. Each AE was evaluated for duration, severity, seriousness, and causal relationship to the investigational drug. The action taken and the outcome were also recorded.
Specifically, subjects who were lost to follow-up and had no post-Baseline contact with the site were excluded from the Safety population. The subjects who discontinued from the study due to lost to follow-up were identified based on the information collected on the study termination CRF page.
After the pretreatment assessment at Visit 1 (Days […] to −3), subjects were to return to the study site for a Baseline assessment and start the treatment at Visit 2 (Day 1).
For the by time-interval analyses of disposition, prevalence of AEs, and of markedly abnormal and predefined changes in laboratory values, vital signs, and ECGs, the following interval windows were used:
Adverse events that were already present prior to the first dose of cilansetron study medication but increased in severity afterwards were considered as treatment-emergent.
The 5% cutoff point was based on the incidence within higher level terms.
Subjects were counted at most once for each primary system organ class and preferred term. Serious AEs that resolved prior to receiving study medication or occurred more than 30 days after the last dose of study medication were not included in the incidence tables. A listing of all SAEs is presented; SAEs with onset prior to receiving study medication or more than 30 days after discontinuation of study medication were flagged. The listing presents lower level term and preferred term of the SAE, severity, action taken, outcome, and relationship of the SAE, start and stop date of the SAE, study day of onset of the SAE, age, race, and sex.

Cc1nccn1C[C@H]1CCc2c(c3cccc4c3n2CCC4)C1=O [cilansetron, (R)-(−)-4,5,6,8,9,10-hexahydro-10-[(2-methyl-1H-imidazol-1-yl)methyl]-11H-pyrido-[3,2,1-jk]-carbazol-11-one]
73 (5%) n (%): TEAE incidence: Diarrhoea NOS
587 (40%) n (%): TEAE incidence: Gastrointestinal Disorders
228 (16%) n (%): TEAE incidence: Gastrointestinal Atonic and Hypomotility Disorders NEC
50 (3%) n (%): TEAE incidence: Dyspepsia
51 (4%) n (%): TEAE incidence: Faeces Abnormal | TEAE incidence: Influenza
21 (1%) n (%): TEAE incidence: Gastrointestinal Spastic and Hypermotility Disorders
12 (<1%) n (%): TEAE incidence: Gastrointestinal Signs and Symptoms NEC
8 (<1%) n (%): TEAE incidence: Diarrhoea Aggravated
13 (<1%) n (%): TEAE incidence: Dental Pain and Sensation Disorders | TEAE incidence: Gastritis NOS
104 (7%) n (%): TEAE incidence: Headaches NEC
1 (<1%) n (%): TEAE incidence: Cardiac Enzymes Increased | TEAE incidence: Carotid Artery Atheroma | TEAE incidence: Carotid Artery Stenosis | TEAE incidence: Cellulitis | TEAE incidence: Central Nervous System Haemorrhages and Cerebrovascular Accidents | TEAE incidence: Cerebral Infarction | TEAE incidence: Cervical Root Pain | TEAE incidence: Cervical Spinal Cord and Nerve Root Disorders | TEAE incidence: Colitis NOS | TEAE incidence: Defaecation Urgency | TEAE incidence: Dental Discomfort | TEAE incidence: Diarrhoea Haemorrhagic | TEAE incidence: Duodenal Polyp | TEAE incidence: Duodenal Ulcer | TEAE incidence: Duodenal Ulcers and Perforation | TEAE incidence: Dysphagia | TEAE incidence: Dystonias | TEAE incidence: Electrocardiogram Change NOS | TEAE incidence: Electrocardiogram Pr Interval Prolonged | TEAE incidence: Electrocardiogram Pr Shortened | TEAE incidence: Electrocardiogram Q Waves Normal | TEAE incidence: Electrocardiogram Qt Shortened | TEAE incidence: Electrocardiogram T Wave Amplitude Decreased | TEAE incidence: Epigastric Hernia | TEAE incidence: Facial Cranial Nerve Disorders | TEAE incidence: Facial Palsy | TEAE incidence: Food Poisoning NOS | TEAE incidence: Gamma-Glutamyltransferase Decreased | TEAE incidence: Gastric Polyps | TEAE incidence: Gastrointestinal Dyskinetic Disorders | TEAE incidence: Gastrointestinal Motility Disorder NOS | TEAE incidence: Gingival Disorders NEC | TEAE incidence: Gingivitis | TEAE incidence: Glossitis | TEAE incidence: Haematemesis | TEAE incidence: Haematological Analyses NEC | TEAE incidence: Haemoglobin Decreased | TEAE incidence: Haemorrhoids Aggravated | TEAE incidence: Hiccups | TEAE incidence: Hypersomnia | TEAE incidence: Hypoaesthesia Oral | TEAE incidence: Ileus Paralytic | TEAE incidence: Intercostal Neuralgia | TEAE incidence: Intertrigo Candida
9 (<1%) n (%): TEAE incidence: Faecal Occult Blood Positive | TEAE incidence: Haemorrhoidal Haemorrhage
28 (2%) n (%): TEAE incidence: Dizziness
59 (4%) n (%): TEAE incidence: Dyspeptic Signs and Symptoms
7 (<1%) n (%): TEAE incidence: Electrocardiogram T Wave Inversion
3 (<1%) n (%): TEAE incidence: Dry Mouth | TEAE incidence: Electrocardiogram St Segment Depression | TEAE incidence: Electrocardiogram St Segment Elevation | TEAE incidence: Faecal Abnormality NOS | TEAE incidence: Gastrointestinal Inflammatory Disorders NEC | TEAE incidence: Herpes Simplex
19 (1%) n (%): TEAE incidence: Gamma-Glutamyltransferase Increased
223 (15%) n (%): TEAE incidence: Gastrointestinal and Abdominal Pains (Excl Oral and Throat)
25 (2%) n (%): TEAE incidence: Cholesterol Analyses | TEAE incidence: ECG Investigations
24 (2%) n (%): TEAE incidence: Gastroenteritis NOS
18 (1%) n (%): TEAE incidence: Eosinophil Count Increased
4 (<1%) n (%): TEAE incidence: Cystitis NOS | TEAE incidence: Dyspepsia Aggravated | TEAE incidence: Electrocardiogram T Wave Abnormal | TEAE incidence: Gastric Ulcers and Perforation | TEAE incidence: Gastritis Aggravated | TEAE incidence: Herpes Zoster | TEAE incidence: Hyperacidity
30 (2%) n (%): TEAE incidence: Haemorrhoids
22 (2%) n (%): TEAE incidence: Gastrointestinal Histopathology Procedures
5 (<1%) n (%): TEAE incidence: Cystitis Acute NOS | TEAE incidence: Disturbances in Consciousness NEC | TEAE incidence: Eructation | TEAE incidence: Frequent Bowel Movements
38 (3%) n (%): TEAE incidence: Haemorrhoids and Gastrointestinal Varices (Excl Oesophageal)
32 (2%) n (%): TEAE incidence: Faeces Hard
2 (<1%) n (%): TEAE incidence: Carbohydrate Tolerance Analyses (Incl Diabetes) | TEAE incidence: Carpal Tunnel Syndrome | TEAE incidence: Central Nervous system Vascular Disorders NEC | TEAE incidence: Colitis Ischaemic | TEAE incidence: Colonic Polyp | TEAE incidence: Diaphragmatic Hernias | TEAE incidence: Duodenitis | TEAE incidence: Dysgeusia | TEAE incidence: Electrocardiogram Abnormal NOS | TEAE incidence: Eosinophil Percentage Increased | TEAE incidence: Epigastric Discomfort | TEAE incidence: Faeces Discoloured | TEAE incidence: Gastric Erosions | TEAE incidence: Gastric Ulcer | TEAE incidence: Gastrointestinal Disorders NEC | TEAE incidence: Gastrointestinal Mucosal Dystrophies and Secretion Disorders | TEAE incidence: Gastrointestinal Neoplasms NEC | TEAE incidence: Gastrointestinal Pain NOS | TEAE incidence: Glucose Urine Present | TEAE incidence: Halitosis | TEAE incidence: Headache NOS Aggravated | TEAE incidence: Hiatus Hernia | TEAE incidence: Hypoaesthesia | TEAE incidence: Inguinal Hernia NOS | TEAE incidence: Inguinal Hernias
